Consider 53 compounds from patent US8017611B2, “Pyridine and pyrazine derivatives -083” (AstraZeneca AB, priority 2007, dated 2011).

Structures are written as SMILES. Marks after values point to notes of the source that are not given here.

The IC50 is the concentration at which inhibition is half-maximal.

One test concerns the target T1, recombinant Axl tyrosine kinase (Homo sapiens, UniProt P30530).
T1 construct: encompassing amino acids 473 to 894 of Axl; GST (N); made in house; host or cells: SF126 insect cells
T1 sequence (P30530 473-894): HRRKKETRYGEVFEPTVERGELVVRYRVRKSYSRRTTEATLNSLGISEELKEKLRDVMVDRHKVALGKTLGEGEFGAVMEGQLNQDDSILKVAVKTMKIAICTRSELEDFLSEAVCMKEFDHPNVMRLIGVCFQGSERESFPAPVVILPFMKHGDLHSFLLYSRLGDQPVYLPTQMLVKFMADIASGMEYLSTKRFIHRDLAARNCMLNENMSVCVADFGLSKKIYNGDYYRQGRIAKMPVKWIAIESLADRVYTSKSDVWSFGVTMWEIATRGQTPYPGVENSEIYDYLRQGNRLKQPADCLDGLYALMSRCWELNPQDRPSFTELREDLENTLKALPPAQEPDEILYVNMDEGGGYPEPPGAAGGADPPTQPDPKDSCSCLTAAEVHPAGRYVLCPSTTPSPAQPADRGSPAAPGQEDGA
The experiment in a line: In vitro Axl kinase assay (AlphaScreen), Test (a). It counts as biochemical. To be noted: Test (a); read-out: IC50 versus Axl tyrosine kinase. (Bead proximity is the source of the signal in Alpha formats.)
Take `COc1cccc2nc(-c3cc(-c4cn(C5CCN(C)CC5)nc4CO)cnc3N)oc12` [Example 41.42]: the IC50 is ~0.2 nM.

Staying with this test, now noted: test compound at 1 μM; first value quoted.
Regarding `CC(O)c1nn(C2CCN(C)CC2)cc1-c1cnc(N)c(-c2nc3c(C#N)cccc3o2)c1` (centres unmarked) [Example 41.41], the “% Axl tyrosine kinase inhibition at 1 μM concentration” value (“% Axl tyrosine kinase inhibition” for short) is given as 99.7%.
On to `COc1cccc2nc(-c3cc(-c4cn(C5CCN(C)CC5)nc4CO)cnc3N)oc12` [Example 41.42], for which the “% Axl tyrosine kinase inhibition” value is 100.0%.
For the compound `COCc1nn(C2CCN(C)CC2)cc1-c1cnc(N)c(-c2nc3cccc(OC)c3o2)c1` [Example 41.43], the “% Axl tyrosine kinase inhibition” value amounted to 100.0%.
Take `Nc1ncc(-c2ccc(OCCN3CCOCC3)cc2)cc1-c1nc2cccnc2o1` [Example 43A.2]: the “% Axl tyrosine kinase inhibition” value stood at 97.2%.
For the compound `Nc1ncc(-c2ccc(OCCN3CCCC3)cc2)cc1-c1nc2cccnc2o1` [Example 43A.3], the “% Axl tyrosine kinase inhibition” value was 98.7%.
Turning to `Nc1ncc(-c2ccc(OCCN3CCCC3)cc2)cc1-c1nc2ncccc2o1` [Example 43B.1], the “% Axl tyrosine kinase inhibition” value worked out at 99.8%.
Same read-out and setting: in the case of `CN(C)CCOc1ccc(-c2cnc(N)c(-c3nc4ncccc4o3)c2)cc1` [Example 43B.2] it was 96.9%; in that of `CCN(CC)CCOc1ccc(-c2cnc(N)c(-c3nc4ncccc4o3)c2)cc1` [Example 43B.3], 99.6%.
As to `CN1CCC(Oc2ccc(-c3cnc(N)c(-c4nc5ncccc5o4)c3)cc2)C1` (centres unmarked) [Example 43B.4], the “% Axl tyrosine kinase inhibition” value worked out at 99.3%.
Still for that read-out and setting: in the case of `CN1CCC[C@H]1COc1ccc(-c2cnc(N)c(-c3nc4ncccc4o3)c2)cc1` [Example 43B.5] it was 99.4%; in that of `Nc1ncc(-c2ccc(OCCN3CCOCC3)cc2)cc1-c1nc2ncccc2o1` [Example 43B.6], 96.4%; in that of `CN1CCN(CCOc2ccc(-c3cnc(N)c(-c4nc5ncccc5o4)c3)cc2)CC1` [Example 43B.7], 98.1%.
`Nc1ncc(-c2ccc(OCCN3CCCCC3)cc2)cc1-c1nc2ncccc2o1` [Example 43B.8]: the “% Axl tyrosine kinase inhibition” value is on record as 19.0^††† %.
For the compound `CN1CCCC(Oc2ccc(-c3cnc(N)c(-c4nc5ncccc5o4)c3)cc2)C1` (centres unmarked) [Example 43B.9], the “% Axl tyrosine kinase inhibition” value came out at 98.2%.
The same measure, in the same setting: with `CN(C)CCCOc1ccc(-c2cnc(N)c(-c3nc4ncccc4o3)c2)cc1` [Example 43B.10] the figure was 98.4%; with `CN1CCC(Oc2ccc(-c3cnc(N)c(-c4nc5ncccc5o4)c3)cc2)CC1` [Example 43B.11], 98.1%.
As to `CN1CCCC(COc2ccc(-c3cnc(N)c(-c4nc5ncccc5o4)c3)cc2)C1` (centres unmarked) [Example 43B.12], the “% Axl tyrosine kinase inhibition” value is on record as 98.8%.
Regarding `CN1CCCCC1CCOc1ccc(-c2cnc(N)c(-c3nc4ncccc4o3)c2)cc1` (centres unmarked) [Example 43B.13], the “% Axl tyrosine kinase inhibition” value is on record as 96.8%.
With `CN1CCN(CCCOc2ccc(-c3cnc(N)c(-c4nc5ncccc5o4)c3)cc2)CC1` [Example 43B.14], the “% Axl tyrosine kinase inhibition” value was 95.1%.
As to `CS(=O)(=O)N1CCN(CCCOc2ccc(-c3cnc(N)c(-c4nc5ncccc5o4)c3)cc2)CC1` [Example 43B.15], the “% Axl tyrosine kinase inhibition” value stood at 86.0%.
`Nc1ncc(-c2ccc(OCCCN3CCS(=O)(=O)CC3)cc2)cc1-c1nc2ncccc2o1` [Example 43B.16]: the “% Axl tyrosine kinase inhibition” value turned out to be 95.3%.
As for `CN1CCCC1CCOc1ccc(-c2cnc(N)c(-c3nc4ncccc4o3)c2)cc1` (centres unmarked) [Example 43B.17], the “% Axl tyrosine kinase inhibition” value came out at 99.5%.
For the compound `Nc1ncc(-c2ccc(OCCCN3CCCC3)cc2)cc1-c1nc2ncccc2o1` [Example 43B.18], the “% Axl tyrosine kinase inhibition” value is on record as 99.9%.
On to `Nc1ncc(-c2ccc(OCCCN3CCOCC3)cc2)cc1-c1nc2ncccc2o1` [Example 43B.19], for which the “% Axl tyrosine kinase inhibition” value was 95.8%.
The same measure, in the same setting: in the case of `CCN(CC)CCCOc1ccc(-c2cnc(N)c(-c3nc4ncccc4o3)c2)cc1` [Example 43B.20] it was 98.9%; in that of `CN1C2CCC1CC(Oc1ccc(-c3cnc(N)c(-c4nc5ncccc5o4)c3)cc1)C2` (centres unmarked) [Example 43B.21], 99.6%; in that of `Nc1ncc(-c2ccc(OCCOCCN3CCOCC3)cc2)cc1-c1nc2ncccc2o1` [Example 43B.22], 97.7%.
On the same count and under the same terms, with `Nc1ncc(-c2ccc(OCC#CCN3CCS(=O)(=O)CC3)cc2)cc1-c1nc2ncccc2o1` [Example 43B.23] the figure was 95.3%; with `CN1CCN(S(=O)(=O)CCCOc2ccc(-c3cnc(N)c(-c4nc5ncccc5o4)c3)cc2)CC1` [Example 43B.24], 98.2%; with `NCCOc1ccc(-c2cnc(N)c(-c3nc4ncccc4o3)c2)cc1` [Example 43B.25], 97.5%.
With `CNCCOc1ccc(-c2cnc(N)c(-c3nc4ncccc4o3)c2)cc1` [Example 43B.26], the “% Axl tyrosine kinase inhibition” value is on record as 97.7%.
On the same count and under the same terms, with `Nc1ncc(-c2ccc(OC3CCNC3)cc2)cc1-c1nc2ncccc2o1` (centres unmarked) [Example 43B.27] the figure was 98.2%.
The same measure, in the same setting: with `Nc1ncc(-c2ccc(OC[C@H]3CCCN3)cc2)cc1-c1nc2ncccc2o1` [Example 43B.28] the figure was 98.7%; with `Nc1ncc(-c2ccc(OCCN3CCNCC3)cc2)cc1-c1nc2ncccc2o1` [Example 43B.29], 93.6%; with `Nc1ncc(-c2ccc(OC3CCCNC3)cc2)cc1-c1nc2ncccc2o1` (centres unmarked) [Example 43B.30], 98.9%.
Consider `NCCCOc1ccc(-c2cnc(N)c(-c3nc4ncccc4o3)c2)cc1` [Example 43B.31], for which the “% Axl tyrosine kinase inhibition” value is 97.1%.
For the compound `CNCCCOc1ccc(-c2cnc(N)c(-c3nc4ncccc4o3)c2)cc1` [Example 43B.32], the “% Axl tyrosine kinase inhibition” value stood at 98.6%.
Still for that read-out and setting: with `Nc1ncc(-c2ccc(OC3CCNCC3)cc2)cc1-c1nc2ncccc2o1` [Example 43B.33] the figure was 98.1%; with `NCCCCOc1ccc(-c2cnc(N)c(-c3nc4ncccc4o3)c2)cc1` [Example 43B.34], 95.7%; with `Nc1ncc(-c2ccc(OCCC3CCNCC3)cc2)cc1-c1nc2ncccc2o1` [Example 43B.35], 95.9%.
Same read-out and setting: with `Nc1ncc(-c2ccc(OCC3CCNCC3)cc2)cc1-c1nc2ncccc2o1` [Example 43B.36] the figure was 98.3%; with `Nc1ncc(-c2ccc(OCCOC3CCNCC3)cc2)cc1-c1nc2ncccc2o1` [Example 43B.37], 97.6%.
Turning to `Nc1ncc(-c2ccc(OCCCN3CCNCC3)cc2)cc1-c1nc2ncccc2o1` [Example 43B.38], the “% Axl tyrosine kinase inhibition” value is on record as 8.1^†††† %.
On to `Nc1ncc(-c2ccc(OCCOC3CNC3)cc2)cc1-c1nc2ncccc2o1` [Example 43B.39], for which the “% Axl tyrosine kinase inhibition” value amounted to 98.2%.
Regarding `Nc1ncc(-c2ccc(OCCC3CCCCN3)cc2)cc1-c1nc2ncccc2o1` (centres unmarked) [Example 43B.40], the “% Axl tyrosine kinase inhibition” value is 97.7%.
`Nc1ncc(-c2ccc(OCC3CCCNC3)cc2)cc1-c1nc2ncccc2o1` (centres unmarked) [Example 43B.41]: the “% Axl tyrosine kinase inhibition” value worked out at 99.0%.
Take `CC1CN(CCCOc2ccc(-c3cnc(N)c(-c4nc5ncccc5o4)c3)cc2)CC(C)N1` (centres unmarked) [Example 43B.42]: the “% Axl tyrosine kinase inhibition” value turned out to be 96.6%.
With `Nc1ncc(-c2ccc(OCCOCCN3CCNCC3)cc2)cc1-c1nc2ncccc2o1` [Example 43B.43], the “% Axl tyrosine kinase inhibition” value was 92.3%.
As for `COc1cc(-c2cnc(N)c(-c3nc4ncccc4o3)c2)ccc1OCCN(C)C` [Example 43C.3], the “% Axl tyrosine kinase inhibition” value is 99.4%.
With `CCN(CC)CCOc1ccc(-c2cnc(N)c(-c3nc4ncccc4o3)c2)cc1OC` [Example 43C.4], the “% Axl tyrosine kinase inhibition” value is recorded as 99.8%.

The test is the same for the next values; noted with them: test compound at 1 μM; first value quoted; read-out: % Axl tyrosine kinase inhibition at 1 μM concentration.
On to `Nc1ncc(-c2ccc(OCCCN3CCCC3)cc2)cc1-c1nc2cccnc2o1` [Example 42, 3-oxazolo[5,4-b]pyridin-2-yl-5-[4-(3-pyrrolidin-1-ylpropoxy)phenyl]pyridin-2-amine], for which the inhibition at 1 µM was determined as 99.7%.
`COc1cc(-c2cnc(N)c(-c3nc4cccnc4o3)c2)ccc1OCCN1CCCC1` [Example 43C.1, 5-[3-methoxy-4-(2-pyrrolidin-1-ylethoxy)phenyl]-3-oxazolo[5,4-b]pyridin-2-yl-pyridin-2-amine]: the inhibition at 1 µM was determined as 99.4%.
Same read-out and setting: with `COc1cc(-c2cnc(N)c(-c3nc4ncccc4o3)c2)ccc1OCCN1CCOCC1` [Example 43C.2, 5-[3-methoxy-4-(2-morpholinoethoxy)phenyl]-3-oxazolo[4,5-b]pyridin-2-yl-pyridin-2-amine] the figure was 97.1%.

The same test, now with this note: test compound at 30 μM.
As to `Nc1ncc(-c2ccc(OCCN3CCCCC3)cc2)cc1-c1nc2ncccc2o1` [Example 43B.8], the “% of Axl tyrosine kinase activity inhibited at a concentration of 30 μM” value was “^†††the compound disclosed in Example 43B.8 inhibited 98% of Axl tyrosine kinase activity at a concentration of 30 μM”.
Turning to `Nc1ncc(-c2ccc(OCCCN3CCNCC3)cc2)cc1-c1nc2ncccc2o1` [Example 43B.38], the “% of Axl tyrosine kinase activity inhibited at a concentration of 30 μM” value is “^††††the compound disclosed in Example 43B.38 inhibited 95.3% of Axl tyrosine kinase activity at a concentration of 30 μM”.
